# Assay results as given in ChEMBL document CHEMBL1201862, “PubChem BioAssay data set” (2004).
# Active and inactive are the calls of the source.
# Key:
# [1] = viability loss in HEK293 cells – cell-based, plate reader, cherry-picked samples, cytotoxicity control, dose response (AID 743446); type: functional
# [2] = biological target: T1, Microphthalmia-associated transcription factor (Homo sapiens, UniProt O75030); test: reducers of TRPM1 reporter luminescence, concentration series – cell-based, SK-MEL-5, cherry-picked, set 3, MITF inhibitor project, dose response (AID 493073); type: functional;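 further: SK-MEL-5 melanoma cells with luciferase driven by the MITF target TRPM1 promoter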
# T1 sequence (O75030 whole entry): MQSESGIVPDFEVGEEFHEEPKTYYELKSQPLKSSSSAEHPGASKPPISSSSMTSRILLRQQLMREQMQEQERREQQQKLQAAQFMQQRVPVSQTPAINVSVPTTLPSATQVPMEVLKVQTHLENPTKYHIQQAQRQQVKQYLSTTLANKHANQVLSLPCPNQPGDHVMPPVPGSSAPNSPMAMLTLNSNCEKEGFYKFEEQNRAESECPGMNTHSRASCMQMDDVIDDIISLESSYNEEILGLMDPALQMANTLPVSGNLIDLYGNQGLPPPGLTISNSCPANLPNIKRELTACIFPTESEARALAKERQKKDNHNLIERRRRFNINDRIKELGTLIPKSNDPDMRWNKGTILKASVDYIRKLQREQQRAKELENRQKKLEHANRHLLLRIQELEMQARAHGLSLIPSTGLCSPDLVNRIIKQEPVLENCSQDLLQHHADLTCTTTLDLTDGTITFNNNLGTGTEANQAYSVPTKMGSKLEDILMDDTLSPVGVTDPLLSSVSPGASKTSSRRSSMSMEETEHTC
# [3] = blockade of melanocortin 4 receptor signaling – cell-based, plate reader, cherry pick, counter-screen for LGR2 antagonist project, dose response (AID 743444); type: functional;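 further: transfected HEK 293 cells stimulated with alpha-MSH peptide; potency of inhibitors of the alpha-MSH evoked signal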
# [4] = biological target: T2, Replicative DNA helicase DnaB (Mycobacterium tuberculosis, UniProt P9WMR3); test: DnaB intein splicing inhibitors, dose response, biochemical, cell-free fluorescence (AID 449749); type: functional
# T2 sequence (P9WMR3 whole entry): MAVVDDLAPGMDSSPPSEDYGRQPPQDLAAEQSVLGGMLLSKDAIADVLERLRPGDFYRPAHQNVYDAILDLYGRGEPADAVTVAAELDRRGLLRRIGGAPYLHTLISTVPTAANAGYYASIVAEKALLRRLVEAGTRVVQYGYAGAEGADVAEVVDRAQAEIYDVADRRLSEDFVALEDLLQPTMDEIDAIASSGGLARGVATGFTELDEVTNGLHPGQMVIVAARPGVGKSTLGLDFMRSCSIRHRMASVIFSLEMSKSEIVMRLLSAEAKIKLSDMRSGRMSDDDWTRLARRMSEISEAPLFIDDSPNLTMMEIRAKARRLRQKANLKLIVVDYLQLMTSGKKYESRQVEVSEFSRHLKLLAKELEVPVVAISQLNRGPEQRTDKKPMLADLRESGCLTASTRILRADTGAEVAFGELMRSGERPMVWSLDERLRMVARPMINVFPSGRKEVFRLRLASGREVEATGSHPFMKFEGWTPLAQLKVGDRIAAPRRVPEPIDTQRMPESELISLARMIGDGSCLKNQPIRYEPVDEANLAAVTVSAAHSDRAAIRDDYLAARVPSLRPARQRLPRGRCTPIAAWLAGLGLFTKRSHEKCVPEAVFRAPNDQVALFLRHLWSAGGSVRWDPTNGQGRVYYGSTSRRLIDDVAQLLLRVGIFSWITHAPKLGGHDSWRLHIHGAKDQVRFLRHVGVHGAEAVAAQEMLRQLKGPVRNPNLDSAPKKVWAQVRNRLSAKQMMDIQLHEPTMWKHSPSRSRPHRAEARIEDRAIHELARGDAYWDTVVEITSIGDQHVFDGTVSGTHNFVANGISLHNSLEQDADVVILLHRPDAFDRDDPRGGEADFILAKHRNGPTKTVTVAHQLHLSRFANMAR
# cells = type: functional
# [5] = toxicity toward HepG2 liver cells – cell-based, plate reader, cherry-pick, antagonist series, cytotoxicity control, dose response (AID 743416); type: functional
# HEK293 [6] = test: cells; type: functional, cell-based; conditions: Homo sapiens
# Protein RecA = biological target: T3, Protein RecA (Mycobacterium tuberculosis, UniProt P9WHJ3); test: Fluorescence Cell-Free Homogeneous Dose Retest to Identify Inhibitors of RecA-Intein Splicing Activity. [Related pubchem assays (depositor defined):AID2097, AID2223, AID489010, AID492950]; type: functional
# T3 sequence (P9WHJ3 whole entry): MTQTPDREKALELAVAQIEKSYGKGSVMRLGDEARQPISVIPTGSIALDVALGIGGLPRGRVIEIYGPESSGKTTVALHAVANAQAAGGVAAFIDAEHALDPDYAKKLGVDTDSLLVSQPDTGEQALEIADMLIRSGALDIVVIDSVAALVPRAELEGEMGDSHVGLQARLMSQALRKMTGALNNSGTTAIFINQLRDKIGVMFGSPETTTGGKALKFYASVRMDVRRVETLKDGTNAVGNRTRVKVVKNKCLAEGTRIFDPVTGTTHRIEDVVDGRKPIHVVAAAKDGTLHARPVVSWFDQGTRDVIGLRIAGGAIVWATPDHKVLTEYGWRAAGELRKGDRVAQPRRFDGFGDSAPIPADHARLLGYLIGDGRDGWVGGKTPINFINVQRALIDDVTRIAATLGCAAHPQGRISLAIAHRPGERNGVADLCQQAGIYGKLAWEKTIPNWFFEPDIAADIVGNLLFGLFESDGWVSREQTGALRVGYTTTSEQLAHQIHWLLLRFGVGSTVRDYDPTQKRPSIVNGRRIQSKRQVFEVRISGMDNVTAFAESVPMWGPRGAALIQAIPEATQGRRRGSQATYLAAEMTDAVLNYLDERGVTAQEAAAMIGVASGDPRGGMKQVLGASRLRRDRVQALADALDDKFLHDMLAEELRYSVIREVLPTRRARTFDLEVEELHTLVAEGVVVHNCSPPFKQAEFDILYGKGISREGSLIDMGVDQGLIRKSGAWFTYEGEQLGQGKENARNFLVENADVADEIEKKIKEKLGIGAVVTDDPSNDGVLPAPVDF
# [7] = THP-1 cell cytotoxicity, dose response, cytotoxicity control for non-replicating M. tuberculosis project (AID 489025); type: functional
# HEK293 [8] = test: cells; type: functional, cell-based; conditions: Homo sapiens; remark: listed apart in the source
# [9] = microbe, parasite or virus in culture; type: functional; conditions: Mycobacterium tuberculosis
# HEK293 [10] = test: NOD2 signaling inhibitors in MDP-stimulated cells, cell-based, uHTS, luminescence (AID 2001); type: functional; conditions: Homo sapiens
# [11] = blockers of bursicon-stimulated LGR2 cAMP reporter – cell-based, HEK293, CRE-luciferase reporter, cherry pick, set 2, dose response (AID 743343); type: functional;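 further: transfected cells were stimulated with diluted bursicon conditioned medium after compound addition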
# HEK293 [12] = test: inhibition of NOD1-driven NF-kB reporter – cell-based, luminescence, uHTS, primary screen (AID 1578); type: functional; conditions: Homo sapiens
# [13] = A549 cell cytotoxicity, dose response, cytotoxicity control, plate reader, cherry-pick, antagonist series (AID 743412); type: functional, cell-based
# [14] = biological target: T4, Nuclear receptor subfamily 0 group B member 1 (Homo sapiens, UniProt P51843); test: Luminescence-based cell-based high throughput dose response assay for inhibitors of the orphan nuclear receptor subfamily 0, group B, member 1 (DAX1; NR0B1). [Related pubchem assays (depositor defined):AID504766, AID504790]; type: functional
# T4 sequence (P51843 whole entry): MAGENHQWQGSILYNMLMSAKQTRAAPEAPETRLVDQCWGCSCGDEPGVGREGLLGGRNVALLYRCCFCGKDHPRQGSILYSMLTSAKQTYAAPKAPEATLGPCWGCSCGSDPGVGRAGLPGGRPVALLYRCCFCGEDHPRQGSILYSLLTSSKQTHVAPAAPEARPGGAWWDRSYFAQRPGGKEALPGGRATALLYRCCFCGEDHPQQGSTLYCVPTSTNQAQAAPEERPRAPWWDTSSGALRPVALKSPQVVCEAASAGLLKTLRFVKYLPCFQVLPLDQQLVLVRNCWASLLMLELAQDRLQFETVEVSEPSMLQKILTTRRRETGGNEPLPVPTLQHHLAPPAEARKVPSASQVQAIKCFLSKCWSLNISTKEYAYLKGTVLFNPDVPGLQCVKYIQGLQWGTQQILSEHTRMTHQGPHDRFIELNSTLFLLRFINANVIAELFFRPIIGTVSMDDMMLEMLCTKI
# HEK293 [15] = test: cells; type: functional, cell-based; conditions: Homo sapiens; remark: listed apart in the source
# [16] = biological target: T5, ATP-dependent translocase ABCB1 (Homo sapiens, UniProt P08183); test: inhibition of BCRP-mediated JC-1 efflux – Ig-MXP3 cells, flow cytometry, set 2, dose response (AID 504566); type: functional; conditions: read-out: EC50_MICROM_;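 further: flow cytometry median green fluorescence of retained JC-1 dye; potency of efflux pump inhibition measured as rising substrate retention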
# T5 sequence (P08183 whole entry): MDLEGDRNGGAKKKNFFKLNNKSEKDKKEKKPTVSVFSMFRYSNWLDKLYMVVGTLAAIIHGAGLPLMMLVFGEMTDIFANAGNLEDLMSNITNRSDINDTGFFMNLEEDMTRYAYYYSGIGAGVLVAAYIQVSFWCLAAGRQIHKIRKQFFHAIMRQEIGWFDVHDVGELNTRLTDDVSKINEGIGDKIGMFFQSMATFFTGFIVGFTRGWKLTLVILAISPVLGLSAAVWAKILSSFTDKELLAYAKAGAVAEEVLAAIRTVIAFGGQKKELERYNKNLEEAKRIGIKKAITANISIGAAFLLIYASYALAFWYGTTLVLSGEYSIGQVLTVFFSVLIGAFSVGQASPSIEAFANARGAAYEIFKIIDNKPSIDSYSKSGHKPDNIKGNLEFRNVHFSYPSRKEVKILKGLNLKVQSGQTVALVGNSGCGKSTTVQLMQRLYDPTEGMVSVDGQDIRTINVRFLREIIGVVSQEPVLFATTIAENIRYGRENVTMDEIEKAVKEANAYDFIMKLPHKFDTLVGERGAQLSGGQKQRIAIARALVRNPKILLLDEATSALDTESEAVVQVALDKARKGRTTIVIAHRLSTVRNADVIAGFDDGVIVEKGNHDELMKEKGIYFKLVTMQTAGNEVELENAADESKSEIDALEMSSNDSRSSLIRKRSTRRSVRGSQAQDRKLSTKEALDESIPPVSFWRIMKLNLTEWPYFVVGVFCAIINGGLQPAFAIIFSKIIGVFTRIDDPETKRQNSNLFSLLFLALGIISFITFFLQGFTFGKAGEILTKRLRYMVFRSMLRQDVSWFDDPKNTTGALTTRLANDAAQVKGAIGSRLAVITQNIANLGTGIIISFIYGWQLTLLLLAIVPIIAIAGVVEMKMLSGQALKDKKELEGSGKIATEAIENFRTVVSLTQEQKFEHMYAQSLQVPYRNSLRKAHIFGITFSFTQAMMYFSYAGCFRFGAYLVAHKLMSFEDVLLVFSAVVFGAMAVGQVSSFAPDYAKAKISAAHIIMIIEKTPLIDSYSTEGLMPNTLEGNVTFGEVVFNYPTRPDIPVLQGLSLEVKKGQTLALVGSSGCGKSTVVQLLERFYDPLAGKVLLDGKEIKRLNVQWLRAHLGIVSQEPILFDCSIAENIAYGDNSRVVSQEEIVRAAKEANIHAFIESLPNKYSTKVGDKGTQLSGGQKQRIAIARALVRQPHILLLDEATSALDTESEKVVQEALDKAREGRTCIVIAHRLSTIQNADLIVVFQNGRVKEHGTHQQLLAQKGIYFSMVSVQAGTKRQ
# [17] = biological target: T5, ATP-dependent translocase ABCB1; test: P-gp JC-1 efflux blockade concentration-response – Jurkat-DNR cells, flow cytometry, set 2, dose response (AID 504569); type: functional; conditions: read-out: EC50_MICROM_;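 further: potency of pump inhibitors that raise cellular JC-1 green fluorescence up to the nicardipine level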
# [18] = biological target: T6, Low molecular weight phosphotyrosine protein phosphatase (Homo sapiens, UniProt P24666); type: functional; conditions: read-out: IC50_Mean
# T6 sequence (P24666 whole entry): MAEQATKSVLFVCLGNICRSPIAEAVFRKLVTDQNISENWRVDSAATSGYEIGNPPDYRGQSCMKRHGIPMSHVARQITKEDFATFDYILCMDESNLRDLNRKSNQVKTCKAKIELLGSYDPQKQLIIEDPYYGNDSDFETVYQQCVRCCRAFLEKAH
# [19] = biological target: T6, Low molecular weight phosphotyrosine protein phosphatase; type: functional; conditions: read-out: IC50_Mean; remark: listed apart in the source
# Vero = test: mammalian cell viability reduction – secondary assay, cytotoxicity control for West Nile virus antiviral project, dose response (AID 1650); type: functional; conditions: Chlorocebus sabaeus
# [20] = test system: Streptococcus sp. 'group A'; test: Streptococcus pyogenes SK(-)GAS viability under kanamycin – luminescence, BacTiterGlo, confirmation, counter-screen for streptokinase expression inhibitor project, dose response (AID 1900); type: functional, organism-based
# Streptococcus = test: GAS UMAA2166 growth inhibition – luminescence, BacTiterGlo, counter-screen for streptokinase expression inhibitor project, dose response (AID 1915); type: functional, organism-based;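 further: potency for reduction of bacterial viability or growth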
# Streptokinase A = biological target: T7, Streptokinase A (Streptococcus pyogenes serotype M1, UniProt P10520); test: viability-normalized secreted streptokinase activity reduction – plasminogen activation absorbance, OD405, dose response (AID 1914); type: functional, Streptococcus pyogenes M1 GAS;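 further: secreted streptokinase activity via plasminogen activation per viability signal from cell pellet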
# T7 sequence (P10520 whole entry): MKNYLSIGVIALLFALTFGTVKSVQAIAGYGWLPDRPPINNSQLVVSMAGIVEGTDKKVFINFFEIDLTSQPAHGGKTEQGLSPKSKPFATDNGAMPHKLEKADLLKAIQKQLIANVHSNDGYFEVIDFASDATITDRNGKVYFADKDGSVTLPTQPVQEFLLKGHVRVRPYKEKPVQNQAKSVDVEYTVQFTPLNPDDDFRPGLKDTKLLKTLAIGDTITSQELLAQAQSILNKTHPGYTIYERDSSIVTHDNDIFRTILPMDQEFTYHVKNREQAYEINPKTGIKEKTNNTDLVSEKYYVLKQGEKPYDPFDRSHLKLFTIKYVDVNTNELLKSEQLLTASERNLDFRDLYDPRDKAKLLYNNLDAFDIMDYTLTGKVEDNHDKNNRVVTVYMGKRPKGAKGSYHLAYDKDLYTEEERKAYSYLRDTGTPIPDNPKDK
structure (smiles),measurement,setting,value
CC(=O)c1ccc(Sc2nnnn2-c2ccccc2)c([N+](=O)[O-])c1,AC50,[1],33.2 µM (active)
same,AC50,[2],7.82 µM (active)
same,AC50,[3],9.52 µM (active)
same,AC50,[4],5.34 µM (active)
same,IC50,cells,26.2 µM (active)
same,AC50,[5],> 52 µM (inactive)
same,IC50,HEK293 [6],2.12 µM (active)
same,EC50,Protein RecA,14.5 µM (active)
same,CC50,[7],14.9 µM (active)
same,IC50,HEK293 [8],> 20 µM (inactive)
same,CC50,[9],> 40 µM (active)
same,IC50,HEK293 [10],3.13 µM (active)
same,AC50,[11],10.8 µM (active)
same,EC50,HEK293 [12],14.3 µM (active)
same,AC50,[13],49.7 µM (active)
COc1ccc(-c2cc(=O)c3ccccc3o2)cc1 [4'-METHOXYFLAVONE],IC50,[14],> 67.5 µM (inactive)
same,IC50,HEK293 [15],> 67.5 µM (inactive)
Cc1cccnc1NC(=O)C(C)N1C(=O)c2ccccc2C1=O (stereo not drawn),IC50,[14],> 67.5 µM (inactive)
same,IC50,HEK293 [15],> 67.5 µM (inactive)
COc1cccc(C(=O)NC(=O)Nc2cc(C)[nH]n2)c1,IC50,[14],> 67.5 µM (inactive)
same,IC50,HEK293 [15],> 67.5 µM (inactive)
Cc1cc(N2CCN(C(=O)c3ccco3)CC2)n2nc(-c3ccc(F)cc3)cc2n1,EC50,[16],2.87 µM (active)
same,EC50,[17],10.8 µM (active)
CNc1nc2c(-c3ccc(Cl)cc3)nnn2c2ccccc12,IC50,[18],3.14 µM (active)
same,IC50,[19],11.1 µM (active)
CN(Cc1ccc(C(C)(C)C)cc1)C(=O)C1CCN(C(=O)Nc2ccccc2)CC1,IC50,[14],> 67.5 µM (inactive)
same,IC50,HEK293 [15],> 67.5 µM (inactive)
Cc1nn2c(N3CCN(C(=O)c4ccco4)CC3)cc(C(C)(C)C)nc2c1-c1ccccc1,EC50,[16],6.22 µM (active)
same,CC50,Vero,42.1 µM (active)
same,EC50,[17],11.1 µM (active)
same,EC50,[20],3.59 µM (active)
same,EC50,Streptococcus,22.1 µM (active)
same,EC50,Streptokinase A,8.62 µM (active)
